Results from ChEMBL document CHEMBL3044976, “Screening and evaluation of rat kidney aldose reductase inhibitory activity of some pyridazine derivatives” (Med Chem Res, 2006).

target: Aldo-keto reductase family 1 member B1 (Rattus norvegicus) (UniProt P07943); experiment: Inhibition of Rattus norvegicus albino (rat) kidney aldose reductase using DL-glyceraldehyde as substrate assessed as decrease in NADPH concentRattus norvegicus (rat) ion at 10^-4 M after 5 min by spectrophotometrically

Row | SMILES | inhibition [%]
1 | Cc1cc(-c2ccccc2)nn1-c1ccc(=O)n(CC(=O)N2CCN(c3ccccc3F)CC2)n1 | 1.85
2 | Cc1nn(-c2ccc(=O)n(CC(=O)Nc3ccc(Cl)cc3)n2)c(C)c1Cl | 0
3 | Cc1cc(C)n(-c2ccc(=O)n(CC(=O)O)n2)n1 | 7.73
4 | Cc1nn(-c2ccc(=O)n(CC(=O)Nc3ccc(F)cc3)n2)c(C)c1Cl | 0
5 | Cc1nn(-c2ccc(=O)n(CC(=O)N3CCCCC3)n2)c(C)c1Cl | 0
6 | Cc1cc(-c2ccccc2)nn1-c1ccc(=O)n(CC(=O)N2CCN(c3ccc(F)cc3)CC2)n1 | 0
7 | Cc1cc(-c2ccccc2)nn1-c1ccc(=O)n(CC(=O)Nc2ccc(Cl)cc2)n1 | 0
8 | Cc1cc(C)n(-c2ccc(=O)n(CC(=O)NCCc3ccccc3)n2)n1 | 0
9 | CCOC(=O)Cn1nc(-n2nc(-c3ccccc3)cc2C)ccc1=O | 0
10 | O=C(CCc1cc(-c2ccc(Cl)cc2)n(-c2ccc(Cl)nn2)n1)Nc1ccc(Cl)cc1 | 0
11 | Cc1cc(-c2ccccc2)nn1-c1ccc(=O)n(CC(=O)Nc2cccnc2)n1 | 3.37
12 | CCOC(=O)Cn1nc(-n2nc(C)cc2C)ccc1=O | 0
13 | Cc1cc(-c2ccccc2)nn1-c1ccc(=O)n(CC(=O)O)n1 | 0.76
14 | O=C(CCc1cc(-c2ccc(Cl)cc2)n(-c2ccc(Cl)nn2)n1)N1CCCCC1 | 0
15 | Cc1cc(C)n(-c2ccc(=O)n(CC(=O)Nc3cccnc3)n2)n1 | 0
16 | Cc1cc(-c2ccccc2)nn1-c1ccc(=O)n(CC(=O)NCCc2ccccc2)n1 | 0
17 | CCOC(=O)Cn1nc(-n2nc(C)c(Cl)c2C)ccc1=O | 0
18 | Cc1cc(C)n(-c2ccc(=O)n(CC(=O)N3CCN(c4ccc(F)cc4)CC3)n2)n1 | 1.85
19 | Cc1cc(C)n(-c2ccc(=O)n(CC(=O)N3CCN(c4ccccc4F)CC3)n2)n1 | 0
20 | Cc1nn(-c2ccc(=O)n(CC(=O)NCCc3ccccc3)n2)c(C)c1Cl | 0
21 | O=C(CCc1cc(-c2ccc(Cl)cc2)n(-c2ccc(Cl)nn2)n1)NCCc1ccccc1 | 0
22 | Cc1nn(-c2ccc(=O)n(CC(=O)O)n2)c(C)c1Cl | 0.98
23 | Cc1cc(C)n(-c2ccc(=O)n(CC(=O)Nc3ccc(Cl)cc3)n2)n1 | 0
24 | O=C(O)CCc1cc(-c2ccc(Cl)cc2)n(-c2ccc(Cl)nn2)n1 | 0.76
